Assay results from ChEMBL document CHEMBL2390840, “An analysis of the synthetic tryptamines AMT and 5-MeO-DALT: emerging 'Novel Psychoactive Drugs'” (Bioorg Med Chem Lett, 2013).

Columns and labels:
[1] = target: Sodium-dependent noradrenaline transporter (Homo sapiens, UniProt P23975); test: Inhibition of [3H]norepinephrine uptake at human NET expressed in HEK293 cells preincubated for 10 mins prior to substrate addition measured after 4 mins by […]; assay type: cell-based
[2] = target: Sodium-dependent serotonin transporter (Homo sapiens, UniProt P31645); assay type: cell-based, HEK293
Chain of Sodium-dependent serotonin transporter (P31645 whole entry): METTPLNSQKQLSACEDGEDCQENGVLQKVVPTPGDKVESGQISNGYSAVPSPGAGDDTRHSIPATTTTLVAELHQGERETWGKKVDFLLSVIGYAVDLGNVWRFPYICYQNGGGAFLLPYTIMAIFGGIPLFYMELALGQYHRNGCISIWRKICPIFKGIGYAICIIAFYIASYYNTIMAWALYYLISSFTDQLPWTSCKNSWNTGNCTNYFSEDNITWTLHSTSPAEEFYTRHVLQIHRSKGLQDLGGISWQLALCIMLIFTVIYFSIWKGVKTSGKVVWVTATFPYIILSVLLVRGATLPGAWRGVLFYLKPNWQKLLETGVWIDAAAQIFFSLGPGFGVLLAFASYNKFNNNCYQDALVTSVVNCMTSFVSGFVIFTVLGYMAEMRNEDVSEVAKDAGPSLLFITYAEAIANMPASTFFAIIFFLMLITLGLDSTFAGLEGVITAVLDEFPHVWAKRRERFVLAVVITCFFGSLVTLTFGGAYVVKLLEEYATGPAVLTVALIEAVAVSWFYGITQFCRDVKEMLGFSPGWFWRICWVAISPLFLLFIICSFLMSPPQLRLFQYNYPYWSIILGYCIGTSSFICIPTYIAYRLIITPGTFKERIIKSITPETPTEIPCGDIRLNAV

[3] = target: Sodium-dependent dopamine transporter (Homo sapiens, UniProt Q01959); assay type: cell-based, HEK293
Chain of Sodium-dependent dopamine transporter (Q01959 whole entry): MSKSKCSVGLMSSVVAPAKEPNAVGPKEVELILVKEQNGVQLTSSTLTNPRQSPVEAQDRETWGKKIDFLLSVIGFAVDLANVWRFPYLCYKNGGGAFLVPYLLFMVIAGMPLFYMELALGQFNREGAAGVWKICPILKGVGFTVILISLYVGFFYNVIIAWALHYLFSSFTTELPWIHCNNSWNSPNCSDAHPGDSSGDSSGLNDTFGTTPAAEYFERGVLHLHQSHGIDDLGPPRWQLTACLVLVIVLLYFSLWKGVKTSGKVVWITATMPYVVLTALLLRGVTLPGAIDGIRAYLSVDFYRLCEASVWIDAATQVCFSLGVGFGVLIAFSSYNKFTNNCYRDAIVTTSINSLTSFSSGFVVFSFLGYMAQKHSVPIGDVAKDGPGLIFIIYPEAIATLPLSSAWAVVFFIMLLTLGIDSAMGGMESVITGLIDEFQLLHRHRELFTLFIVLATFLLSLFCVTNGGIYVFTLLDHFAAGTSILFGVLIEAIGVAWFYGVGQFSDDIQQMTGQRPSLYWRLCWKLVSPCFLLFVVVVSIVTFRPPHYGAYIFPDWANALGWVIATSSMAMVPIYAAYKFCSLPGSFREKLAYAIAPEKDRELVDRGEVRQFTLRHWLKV

Chain of Sodium-dependent noradrenaline transporter (P23975 whole entry): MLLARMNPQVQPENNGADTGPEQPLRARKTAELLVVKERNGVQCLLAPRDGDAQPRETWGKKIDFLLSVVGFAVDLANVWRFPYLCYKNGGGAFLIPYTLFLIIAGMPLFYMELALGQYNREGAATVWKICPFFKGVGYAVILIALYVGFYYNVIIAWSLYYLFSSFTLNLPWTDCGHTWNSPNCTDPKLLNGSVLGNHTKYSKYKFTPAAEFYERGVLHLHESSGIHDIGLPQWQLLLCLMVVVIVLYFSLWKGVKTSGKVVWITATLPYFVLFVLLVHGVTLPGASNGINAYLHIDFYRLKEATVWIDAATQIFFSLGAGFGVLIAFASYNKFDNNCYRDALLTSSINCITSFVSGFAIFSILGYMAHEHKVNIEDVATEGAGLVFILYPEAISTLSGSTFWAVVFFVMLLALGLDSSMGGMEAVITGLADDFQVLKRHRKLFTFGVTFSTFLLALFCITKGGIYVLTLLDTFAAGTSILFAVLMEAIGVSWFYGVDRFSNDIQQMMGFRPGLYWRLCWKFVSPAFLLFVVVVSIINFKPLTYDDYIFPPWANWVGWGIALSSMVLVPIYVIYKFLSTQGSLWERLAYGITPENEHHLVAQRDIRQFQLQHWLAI

Compound | IC50 [1] [nM] | Ki [1] [nM] | IC50 [2] [nM] | Ki [2] [nM] | IC50 [3] [nM] | Ki [3] [nM]
CC(N)Cc1ccc2c(c1)OCO2 (single isomer, unassigned; (-)) [TENAMFETAMINE] | 3160 | 704 | 6760 | 2310 | 6170 | 2420
CN[C@@H](C)Cc1ccc2c(c1)OCO2 (single isomer, unassigned; (+)) [MIDOMAFETAMINE] | 2000 |  | 2750 |  | 2400 | 897
CN(C)CCC=C1c2ccccc2CCc2ccccc21 [AMITRIPTYLINE] |  |  |  |  | 12600 | 6200
